Publication PMC11480511 (Scientific Reports, 2024)
In brackets after ≈: the same amount, converted by molar mass.

What was measured:
MOLT-4 = assay: NCI single-dose growth inhibition screen; format: cell-based; settings: Homo sapiens; Leukemia MOLT-4; single dose 10^−5 M
RPMI-8226 = assay: NCI single-dose growth inhibition screen; format: cell-based; settings: Homo sapiens; Leukemia RPMI-8226; single dose 10^−5 M
SR = assay: NCI single-dose growth inhibition screen; format: cell-based; settings: Homo sapiens; Leukemia SR; single dose 10^−5 M
HOP-62 = assay: NCI single-dose growth inhibition screen; format: cell-based; settings: Homo sapiens; Non-Small Cell Lung Cancer HOP-62; single dose 10^−5 M
HOP-92 = assay: NCI single-dose growth inhibition screen; format: cell-based; settings: Homo sapiens; Non-Small Cell Lung Cancer HOP-92; single dose 10^−5 M
NCI-H460 = assay: NCI single-dose growth inhibition screen; format: cell-based; settings: Homo sapiens; Non-Small Cell Lung Cancer NCI-H460; single dose 10^−5 M
NCI-H522 = assay: NCI single-dose growth inhibition screen; format: cell-based; settings: Homo sapiens; Non-Small Cell Lung Cancer NCI-H522; single dose 10^−5 M
HCT-116 = assay: NCI single-dose growth inhibition screen; format: cell-based; settings: Homo sapiens; Colon Cancer HCT-116; single dose 10^−5 M
SF-268 = assay: NCI single-dose growth inhibition screen; format: cell-based; settings: Homo sapiens; CNS Cancer SF-268; single dose 10^−5 M
SF-539 = assay: NCI single-dose growth inhibition screen; format: cell-based; settings: Homo sapiens; CNS Cancer SF-539; single dose 10^−5 M
SNB-19 = assay: NCI single-dose growth inhibition screen; format: cell-based; settings: Homo sapiens; CNS Cancer SNB-19; single dose 10^−5 M
SNB-75 = assay: NCI single-dose growth inhibition screen; format: cell-based, human; settings: Homo sapiens, SNB-75, CNS Cancer SNB-75; single dose 10^−5 M
MALME-3 M = assay: NCI single-dose growth inhibition screen; format: cell-based; settings: Homo sapiens; Melanoma MALME-3 M; single dose 10^−5 M
M14 = assay: NCI single-dose growth inhibition screen; format: cell-based; settings: Homo sapiens; Melanoma M14; single dose 10^−5 M
Procedure: Following the guidelines established by the drug evaluation department of the National Cancer Institute (NCI), USA, all target compounds 3a–l were examined against 60 cancer cell lines at a single concentration of 10 µM.
The anti-cancer potential of the tested compounds was evaluated at the National cancer institute (NCI), USA, against 9 panels of 60 various cell lines derived from nine human tumours available usually at NCI library. The procedures for the screening were described in details in NCI website (dttp://www.dtp.nci.nih.gov.) and were done according to NCI protocols[60] . The anticancer screening was carried out at single dose of 10^−5 M, NCI, Bethesda, USA. The results obtained as growth inhibition (%).

MDA-MB-435 = assay: NCI single-dose growth inhibition screen; format: cell-based; settings: Homo sapiens; Melanoma MDA-MB-435; single dose 10^−5 M
SK-MEL-2 = assay: NCI single-dose growth inhibition screen; format: cell-based; settings: Homo sapiens; Melanoma SK-MEL-2; single dose 10^−5 M
SK-MEL-28 = assay: NCI single-dose growth inhibition screen; format: cell-based; settings: Homo sapiens; Melanoma SK-MEL-28; single dose 10^−5 M
UACC-257 = assay: NCI single-dose growth inhibition screen; format: cell-based; settings: Homo sapiens; Melanoma UACC-257; single dose 10^−5 M
UACC-62 = assay: NCI single-dose growth inhibition screen; format: cell-based; settings: Homo sapiens; Melanoma UACC-62; single dose 10^−5 M
IGROV1 = assay: NCI single-dose growth inhibition screen; format: cell-based; settings: Homo sapiens, IGROV-1; Ovarian Cancer IGROV1; single dose 10^−5 M
OVCAR-4 = assay: NCI single-dose growth inhibition screen; format: cell-based; settings: Homo sapiens; Ovarian Cancer OVCAR-4; single dose 10^−5 M
A498 = assay: NCI single-dose growth inhibition screen; format: cell-based, human; settings: Homo sapiens, A498, Renal Cancer A498; single dose 10^−5 M
CAKI-1 = assay: NCI single-dose growth inhibition screen; format: cell-based; settings: Homo sapiens; Renal Cancer CAKI-1; single dose 10^−5 M
TK-10 = assay: NCI single-dose growth inhibition screen; format: cell-based; settings: Homo sapiens; Renal Cancer TK-10; single dose 10^−5 M
UO-31 = assay: NCI single-dose growth inhibition screen; format: cell-based, human; settings: Homo sapiens, UO-31, Renal Cancer UO-31; single dose 10^−5 M
HS 578T = assay: NCI single-dose growth inhibition screen; format: cell-based; settings: Homo sapiens; Breast Cancer HS 578T; single dose 10^−5 M
BT-549 = assay: NCI single-dose growth inhibition screen; format: cell-based; settings: Homo sapiens; Breast Cancer BT-549; single dose 10^−5 M
T-47D = assay: NCI single-dose growth inhibition screen; format: cell-based; settings: Homo sapiens, T47D; Breast Cancer T-47D; single dose 10^−5 M
PC-3 = assay: NCI single-dose growth inhibition screen; format: cell-based; settings: Homo sapiens; Prostate Cancer PC-3; single dose 10^−5 M
DU-145 = assay: NCI single-dose growth inhibition screen; format: cell-based; settings: Homo sapiens; Prostate Cancer DU-145; single dose 10^−5 M
S. aureus ATCC 6538 = assay: Antibacterial screening, agar cup diffusion method; format: cell-based; settings: Staphylococcus aureus, ATCC6538; Gram + ve strain; read-out: Minimum inhibitory concentrations (MIC, µM) S. aureus ATCC 6538
Procedure: (§1) Anti-bacterial activity of the recently synthesized compounds 3a-k was evaluated at AUMC (Assiut University Mycological Centre), Assiut, Egypt. Assays were done against Gram-negative strains of K. pneumoniae (ATCC 100310, E. coli (ATCC 25922), Pseudomonas aeruginosa (ATCC 27853) and the Gram-positive S. aureus (ATCC 6538) strain utilizing standard agar cup diffusion method. The isolates from the four bacterial species examined were kept in TSB (Trypticase Soya Broth, Becton and Dickinson) with 10% glycerol at -70 °C and then subcultured on TSA (Trypticase Soya Agar, Becton and Dickinson) and TSB for 24 h at 37 °C former to inoculation. Bacterial isolates were then plated on sterile petri plates with 1 × 10^8 CFU/mL (0.5 McFarland turbidity) and 20 mL of Mueller Hinton Agar media (Oxoid) was then loaded. To ensure that the microorganisms were evenly dispersed, the plates were gently rotated before being left to harden on a level surface. Four equally spaced spherical-shaped wells (10 mm diameter) were painstakingly drilled using a sterilized cork bore after media solidification. All tested compounds under test underwent two-fold serial dilutions in a sequential manner. Three replications of 100 µL of each concentration were added to a well using a micropipette. Plates were then incubated for 24-hour at 37 °C. The average of the inhibition zones was then calculated. To determine the MICs, the natural logarithm of each diluted test substance’s concentration was plotted against the average area of the related inhibition zone. Following that, a regression line was created and the intercept on the ‘ln concentration” axis was determined, and the antilogarithm was calculated to indicate the MIC value[34],[63].

E. coli ATCC 25,922 = assay: Antibacterial screening, agar cup diffusion method; format: cell-based; settings: Escherichia coli, ATCC25, Gram –ve strain; read-out: Minimum inhibitory concentrations (MIC, µM) E. coli ATCC 25,922
Procedure: as §1

SMILES | inhibition at 10 µM (MOLT-4) | inhibition at 10 µM (RPMI-8226) | inhibition at 10 µM (SR) | inhibition at 10 µM (HOP-62) | inhibition at 10 µM (HOP-92) | inhibition at 10 µM (NCI-H460) | inhibition at 10 µM (NCI-H522) | inhibition at 10 µM (HCT-116) | inhibition at 10 µM (SF-268) | inhibition at 10 µM (SF-539) | inhibition at 10 µM (SNB-19) | inhibition at 10 µM (SNB-75) | inhibition at 10 µM (MALME-3 M) | inhibition at 10 µM (M14) | inhibition at 10 µM (MDA-MB-435) | inhibition at 10 µM (SK-MEL-2) | inhibition at 10 µM (SK-MEL-28) | inhibition at 10 µM (UACC-257) | inhibition at 10 µM (UACC-62) | inhibition at 10 µM (IGROV1) | also measured
COc1cc(/C=C2\SC(=O)N(CCCC(=O)N3CCN(c4cc5c(cc4F)c(=O)c(C(=O)O)cn5C4CC4)CC3)C2=O)cc(OC)c1OC [3 g] | < 0% | < 0% | 5.4% | < 0% | < 0% | < 0% | 3.3% | < 0% | 4.4% | 0.5% | < 0% | 5.9% | < 0% | 0.5% | < 0% | < 0% | < 0% | 6.7% | 3.7% | < 0% | inhibition at 10 µM (OVCAR-4): < 0%; inhibition at 10 µM (A498): 2.3%; inhibition at 10 µM (CAKI-1): 2.2%; inhibition at 10 µM (TK-10): < 0%; inhibition at 10 µM (UO-31): 1.5%; inhibition at 10 µM (HS 578T): 3.2%; inhibition at 10 µM (BT-549): < 0%; inhibition at 10 µM (T-47D): < 0%; inhibition at 10 µM (PC-3): < 0%; inhibition at 10 µM (DU-145): < 0%; MIC (S. aureus ATCC 6538): > 20 µM; MIC (E. coli ATCC 25,922): 0.25 µM (≈ 0.174 µg/mL); melting point: 252 °C
O=C(O)c1cn(C2CC2)c2cc(N3CCN(C(=O)CCCN4C(=O)S/C(=C\c5ccc(Cl)cc5)C4=O)CC3)c(F)cc2c1=O [3 h] | < 0% | < 0% | 10.7% | 2.9% | 9.7% | 0% | 18.3% | 1.8% | 2.3% | 1.2% | 0% | 15.5% | 10.9% | 0.7% | < 0% | 7.3% | < 0% | 5.1% | 6.2% | < 0% | inhibition at 10 µM (OVCAR-4): 5.1%; inhibition at 10 µM (A498): 7.7%; inhibition at 10 µM (CAKI-1): 4.4%; inhibition at 10 µM (TK-10): 1.1%; inhibition at 10 µM (UO-31): 28%; inhibition at 10 µM (HS 578T): < 0%; inhibition at 10 µM (BT-549): 3.8%; inhibition at 10 µM (T-47D): 2%; inhibition at 10 µM (PC-3): < 0%; inhibition at 10 µM (DU-145): < 0%; MIC (S. aureus ATCC 6538): > 20 µM; MIC (E. coli ATCC 25,922): 0.04 µM (≈ 0.0256 µg/mL); melting point: 273 °C
O=C(O)c1cn(C2CC2)c2cc(N3CCN(C(=O)CCCN4C(=O)SC(=Cc5cccc([N+](=O)[O-])c5)C4=O)CC3)c(F)cc2c1=O [3d, 1-cyclopropyl-6-fluoro-7-[4-[4-[5-[(3-nitrophenyl)methylene]-2,4-dioxo-thiazolidin-3-yl]butanoyl]piperazin-1-yl]-4-oxoquinoline-3-carboxylic acid] | < 0% | < 0% | < 0% | 5.2% | < 0% | < 0% | 20.7% | < 0% | 2.4% | 9.5% | 1% | 18.2% | 9.8% | 0.8% | < 0% | 2.9% | < 0% | 8.1% | 10.3% | 1.6% | inhibition at 10 µM (OVCAR-4): 2.6%; inhibition at 10 µM (A498): 8.9%; inhibition at 10 µM (CAKI-1): 5%; inhibition at 10 µM (TK-10): < 0%; inhibition at 10 µM (UO-31): 20.7%; inhibition at 10 µM (HS 578T): 8.2%; inhibition at 10 µM (BT-549): 3%; inhibition at 10 µM (T-47D): < 0%; inhibition at 10 µM (PC-3): < 0%; inhibition at 10 µM (DU-145): < 0%; MIC (S. aureus ATCC 6538): > 20 µM; MIC (E. coli ATCC 25,922): 0.2 µM (≈ 0.13 µg/mL); melting point: 263 °C
